Results as given in patent US5605703A, “Liposomes encapsulating doxorubicin” (priority 1993, dated 1997).
Entries after “also recorded” stand apart in the source; their conditions may differ.

Legend:
animals = settings: literature; cited from earlier work
[1] = Survival of healthy BALB/C rats after i.p. administration; settings: rat, in vivo, ip, 18 mg/kg, during the second week
Procedure: (§1) As in Example 1, VET liposomes of composition PL:PG:CHOL:DXR (50:50:50:15) and chroman 6 (7.5 mg) were prepared.
Inoculation by intraperitoneal route. Healthy BALB/C rats were treated intraperitoneally with said preparation, and the survival curves compared (FIG. 4) with the administration of free drug at the same dose, 18 mg/kg. In the experiment there was incorporated as a control a preparation of liposomes without drug, of identical characteristics and at the same lipidic concentration which would correspond to the liposomes with DXR.

[2] = Survival of healthy BALB/C rats after i.v. administration; settings: rat, in vivo, iv, 16 mg/kg, during the second week
Procedure: as §1
Inoculation intravenously. Healthy BALB/C rats were treated intravenously with the preparation of L-DXR described and the survival curves compared (FIG. 5) with the administration of free drug of the same dose, 16 mg/kg. In the experiment there was incorporated as a control a preparation of liposomes without drug, of identical characteristics and at the same lipidic concentration which would correspond to the liposomes with DXR.

[3] = system: lipid peroxidation in rat liver microsomes (Fe-ascorbate); experiment: Inhibition of Fe-ascorbate stimulated (chemical) lipid peroxidation in rat liver microsomes, TBARS test; assay type: biochemical, Sprague-Dawley male rat; settings: for percentage of inhibition of TBARS production, Fe-ascorbate: at a 0.5 mM concentration; for inhibition of lipid peroxidation, Fe-ascorbate (in words) / IC50: rat liver microsomes; for effect with Fe-ascorbate compared with the tests depending on NADPH: Fe-ascorbate vs. NADPH; for IC50: FeSO4, ascorbic acid 0.5 mM, 30 min. at 37° C., read-out: IC50 TBARS production, Fe-ascorbate
Procedure: (§2) Incubations. Suspension of Sprague-Dawley male rat liver microsomes in Krebs-Ringer (KRP) phosphates buffer, were prepared in accordance with the method of Fraga et al.: Free Radical Biol. Med. (1988) 4, 155-161. For the experiences of lipidic peroxidation induced enzymatically, microsomal protein (2 mg) in 1 ml of KRP buffer was incubated for one hour at 37° C. in the presence of 0.1 mM NADPH and 2 μl of DMSO containing the compound to be evaluated at the appropriate concentration. In the experiments where the incubations were prolonged up to three hours, every hour 0.1 ml of NADPH 2 mM was added to the incubation medium. For the experiments of lipid peroxidation induced chemically, 2 mg. of microsomal protein in 1 ml of KRP buffer were incubated for 30 min. at 37° C. in the presence of FeSO4 50/μM, ascorbic acid 0.5 mM and 2 μl of DMSO containing the compound to be evaluated at the appropriate concentration. In all cases, the incubations were arrested by addition of 0.2 ml of BHT at 4%.
(§3) TBARS test. […]. (1988) 4, 155-161 (herein incorporated by reference). Briefly, 0.5 ml of dodecyl sodium sulphate at 3% was added to proportions of 0.5 ml of the microsomal incubations. After mixing them, 2 ml of HC1 0.1 N, 0.3 ml of phosphotungstic acid and 1 ml of 2-thiobarbituric acid were added. The mixture was kept 30 min. at 100° C., and the TBARS were extracted with 3 ml of 1-butanol. After centrifugation, the fluorescence of the butanol phase was determined exciting at 515 nm and reading at 555 nm. The values obtained were expressed as nanomoles of TBARS (malondialdehyde equivalents). The standards of malondialdehyde were prepared from 1,1,3,3-tetramethoxypropane. The experiments were performed in triplicate. The values of […] were determined by representation of the percentage of inhibition vs. log [I], using at least five different concentrations. The values of the percentages of inhibition were referred to the determination carried out in presence of DMSO (2 μl).
(§4) In Table I the results of the inhibition of the lipidic peroxidation shown by several 2.2-dimethylchromans and chromans, fluorated or not, in incubations of rat liver microsomes induced by NADPH or stimulated by Fe-ascorbate, are shown, expressed as values of […] for the inhibition of the production of TBARS.

[4] = system: lipid peroxidation in rat liver microsomes (NADPH); experiment: Inhibition of NADPH-induced (enzymatic) lipid peroxidation in rat liver microsomes, TBARS test; assay type: biochemical, Sprague-Dawley male rat; settings: for IC50 / inhibition of lipid peroxidation, NADPH (in words): rat liver microsomes; for IC50: 0.1 mM NADPH, one hour at 37° C., read-out: IC50 TBARS production, NADPH
Procedure: as §2, §3, §4

[5] = Encapsulation of DXR in liposomes (Sephadex G-50M); assay type: physicochemical; settings: VET liposomes PL:PG:CHOL:DXR (50:50:50:15), anti-oxidant varied
Procedure: A chloroform solution was prepared containing the selected lipids (table II) and 7.5 mg. of the chroman 6 in a round-bottomed flask. Afterward proceeding to the elimination of the organic solvent by means of roto-evaporation, additionally the traces of solvent were eliminated by passage of N2 or by lyophilization. The lipidic film thus obtained was hydrated, with 3 ml of NaCl solution at 0.9% containing DXR, by agitation in a vibromixer at intervals of 30 sec., followed by resting in a bath maintained at 60° C. for the same amount of time and an effective agitation up to 10 min. Thus a liposomal dispersion was obtained containing preferably multilamelar vesicles (MLVs). The liposomal solution was sonicated by ultrasonic irradiation by means of a titanium probe until a change in the turbidity was observed. The protocol of sonication was carried out in relays of 2 min. of sonication and one minute resting under atmosphere of N2 in an ice water bath. In order to eliminate the particles of titanium produced during the sonication, it was centrifuged for 20 min. at 3000 rpm. The liposomal suspension thus obtained contained small unilamelar liposomes (SUVs).
Alternatively, the suspension of multilamelar liposomes obtained as described was submitted to extrusion through polycarbonate filters of 0.4 and 0.2 μm in diameter of pore subsequently, obtaining liposomes designated VET.
The determination of the percentage of encapsulation of DXR was done by chromatographic separation of a portion of the liposomal suspension, by means of Sephadex G-50M utilizing NaCl 0.9% as eluent.
Proceeding in a manner analogous to that described in EXAMPLE 2 to obtain VET liposomes utilizing a ratio by weight of PL:PG:CHOL:DXR of 50:50:50:15 and varying the anti-oxidant agent employed. The results obtained show (Table III) that no appreciable differences exist in the percentages of encapsulation when different inhibitors of the lipidic peroxidation were utilized.

[6] = system: lipid peroxidation in rat liver microsomes (NADPH); experiment: Persistence of the inhibition of lipid peroxidation over three hours in rat liver microsomes with NADPH; assay type: biochemical, Sprague-Dawley male rat; settings: compounds 5, 6, 8, 9 at 15, 1, 6, 5 μM
Procedure: FIG. 1 illustrates the formulas of the chromenes (1-4), chromans (5-9) and compound of reference, BHT, (10) studied as inhibitors of the lipidic peroxidation. […] The values shown are the average +/-SD of sextuplicate tieterminations that were performed. The difference between consecutive hours are marked by asterisks: * P<0.001, ** P<0.005.
as §2
TBARS test. When the incubations were completed, the lipid peroxidation was evaluated by means of the production of substances which react with thiobarbituric acid (TBARS) as Fraga et al described.: Free Radical Biol. Meal. (1988) 4, 155-161 (herein incorporated by reference). Briefly, 0.5 ml of dodecyl sodium sulphate at 3% was added to proportions of 0.5 ml of the microsomal incubations. […] After centrifugation, the fluorescence of the butanol phase was determined exciting at 515 nm and reading at 555 nm. The values obtained were expressed as nanomoles of TBARS (malondialdehyde equivalents). […] The values of […] were determined by representation of the percentage of inhibition vs. log [I], using at least five different concentrations. […]

rat liver microsomes = assay type: in vitro ADME, Sprague-Dawley male rat

SMILES: COc1cccc2c1C(=O)c1c(O)c3c(c(O)c1C2=O)C[C@@](O)(C(=O)CO)C[C@@H]3O[C@H]1C[C@H](N)[C@H](O)[C@H](C)O1 [F-DXR]
- toxicity in animals (in words) (animals): cardiomyopathy
- mortality [1]: 100%
- mortality [2]: 100%

SMILES: COc1cc2c(cc1OC)OC(C)(C)CC2 [compound 5]
- percentage of inhibition of TBARS production, Fe-ascorbate [3]: 17%
- inhibition of lipid peroxidation, Fe-ascorbate (in words) [3]: inactive
- IC50 [4]: 15 µM
- % encapsulation (Table III) [5]: 86%
- persistence of the inhibiting activity [6]: remains constant; also recorded: anti-oxidant efficiency more metabolic-dependent

SMILES: Cc1cc(C(C)(C)C)c(O)c(C(C)(C)C)c1 [compound 10, reference compound]
- effect with Fe-ascorbate compared with the tests depending on NADPH [3]: A similar relation
- IC50 [3]: 2.7 µM
- IC50 [4]: 0.8 µM

SMILES: CC1(C)C=Cc2cc(O)c(OCC(F)(F)F)cc2O1 [compound 4]
- IC50 [3]: 6 µM
- IC50 [4]: 3.7 µM
- inhibition of lipid peroxidation, NADPH (in words) [4]: the greatest inhibiting activity
- % encapsulation (Table III) [5]: 84%
- metabolite detected (rat liver microsomes): detection as a metabolite in the incubations with NADPH

SMILES: COc1cc2c(cc1OC)OC(C)(C)C=C2 [compound 1]
- percentage of inhibition of TBARS production, Fe-ascorbate [3]: 35%
- inhibition of lipid peroxidation, Fe-ascorbate (in words) [3]: inactive
- IC50 [4]: 11.4 µM
- % encapsulation (Table III) [5]: 89%

SMILES: COc1cc2c(cc1OCC(F)(F)F)OC(C)(C)CC2 [compound 8]
- percentage of inhibition of TBARS production, Fe-ascorbate [3]: 5%
- inhibition of lipid peroxidation, Fe-ascorbate (in words) [3]: does not present inhibiting activity per se
- inhibiting activity compared with another compound, NADPH [4]: nine times greater than that corresponding to chromene 3
- IC50 [4]: 6 µM
- % encapsulation (Table III) [5]: 90%
- persistence of the inhibiting activity [6]: slightly higher during the second hour of incubation; also recorded: significant drop in the inhibiting activity during the third hour; also recorded: not significant when it is compared with the percentage of inhibition determined for the first hour of incubation (P>0.005); also recorded: anti-oxidant efficiency more metabolic-dependent

SMILES: COc1cc2c(cc1O)C=CC(C)(C)O2 [compound 2]
- effect with Fe-ascorbate compared with the tests depending on NADPH [3]: six times smaller
- inhibition of lipid peroxidation, Fe-ascorbate (in words) [3]: potent inhibiting effect
- IC50 [3]: 3.8 µM
- IC50 [4]: 1.4 µM
- % encapsulation (Table III) [5]: 85%

SMILES: COc1cc2c(cc1O)CCC(C)(C)O2 [compound 6]
- inhibiting activity compared with another compound, Fe-ascorbate [3]: superior to that of the BHT; also recorded: an order of magnitude greater than that of the compound 7
- effect with Fe-ascorbate compared with the tests depending on NADPH [3]: six times smaller
- inhibition of lipid peroxidation, Fe-ascorbate (in words) [3]: potent inhibiting effect; also recorded: the greatest inhibiting power
- IC50 [3]: 1.9 µM
- inhibiting activity compared with another compound, NADPH [4]: an order of magnitude greater than that of the compound 7
- IC50 [4]: 0.3 µM
- % encapsulation (Table III) [5]: 87%

SMILES: CC1(C)CCc2cc(O)c(OCC(F)(F)F)cc2O1 [compound 9]
- inhibiting activity compared with another compound, Fe-ascorbate [3]: slightly inferior to that shown by hydroxychroman 6
- IC50 [3]: 5.3 µM
- IC50 [4]: 3.9 µM
- inhibition of lipid peroxidation, NADPH (in words) [4]: the highest inhibiting activity of the chroman fluorates tested
- % encapsulation (Table III) [5]: 83%
- persistence of the inhibiting activity [6]: decreases during the second and the third hour of incubation; also recorded: less pronounced than that obtained for the compound 6; also recorded: more persistent intrinsic activity

SMILES: COc1cc2c(cc1O)OC(C)(C)CC2 [compound 7]
- effect with Fe-ascorbate compared with the tests depending on NADPH [3]: six times smaller
- inhibition of lipid peroxidation, Fe-ascorbate (in words) [3]: potent inhibiting effect
- IC50 [3]: 19 µM
- IC50 [4]: 3.4 µM
- % encapsulation (Table III) [5]: 88%
